Where “and” joins values, the source holds several entries; their conditions need not be identical. Equal values may be shown once. ± gives the uncertainty stated by the source.
System: HEK293T-Rex ERSE-FLuc
Assay: maximal ERSE-FLuc activation from dose-response fit, relative to thapsigargin (% of thapsigargin); higher = stronger activation
Conditions: 18 h
Procedure: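 Dose-response of hit compounds in HEK293T-Rex cells stably expressing ERSE-FLuc or XBP1-RLuc reporters, 18 hr treatment, 1536-well; luminescence normalised to 500 nM thapsigargin (100%) and DMSO (0%), fitted to give EC50 (M) and maximal activation; '>' marks EC50 above the top tested dose (~17 µM).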

SMILES | maximal ERSE-FLuc activation
Cc1ccc(O)c(NC(=O)c2cc(CC(C)C)on2)c1 | 89.2 ± 8
Oc1ccc(-c2cn3ccccc3n2)cc1O | 51.7 ± 5.5
O=C(COC(=O)c1ccc(O)c(O)c1)Nc1nc(-c2ccccc2)cs1 | 36.1 ± 4.4
CCCCCCOc1ccc(/C(C)=N/NC2=NCCN2)cc1[N+](=O)[O-] | 34.7 ± 1.6
Oc1ccc(-c2csc(-c3ccccc3)n2)cc1O | 65.2 ± 8.8
NC(=O)c1c(NC(=O)c2cccc3ccccc23)sc2c1CCC2 | 21.9 ± 5.8
CCCCNc1ncnc2c1cnn2-c1ccc(Cl)cc1 | 25.4 ± 3
CCOC(=O)c1sc(NC(=O)c2cccc3ccccc23)nc1C | 25.3 ± 5.7
CCN(CC)c1ccc2cc(-c3nc4ccccc4n3C)c(=O)oc2c1 | 22.8 ± 1.6
O=c1[nH]c(COc2ccccc2)nc2sc3c(c12)CCCC3 | 23.3 ± 2.4
COc1ccc(/C=C(\C#N)c2nc(-c3ccco3)cs2)cc1O | 32.9 ± 2.9
N/C(=N\N=C\c1ccc(O)c(O)c1)c1nonc1N | 96.9 ± 3.7
O=C1N/C(=C/c2ccc(O)cc2)C(=O)N1Cc1ccc(Br)cc1 | 47.9 ± 1.7
CC(=O)N1CCc2c([nH]c3ccccc23)C12CCN(CCCOc1ccccc1)CC2 | 151 ± 7.6
Cc1ccc(Nc2nc(N)c3ccccc3n2)cc1Cl | 111 ± 7.9
Nc1ccc2sc(-c3cc(Cl)c(N)c(Cl)c3)nc2c1 | 22 ± 6.1
CS(=O)(=O)c1ncc(Cl)c(C(=O)C(C#N)c2nc3ccccc3s2)n1 (stereo unspecified) | 73.2 ± 8.2
CCC(=O)N(Cc1cc2cc(C)ccc2n2nnnc12)C1CCCC1 | 20.1 ± 5.6
Cc1ccc(O)c(NC(=O)c2cc(C3CC3)on2)c1 | 91.7 ± 12
CCn1c(/C(C#N)=C/c2ccc(OC)cc2)nc2ccccc21 | 30.6 ± 6.3
O=C1N/C(=C/c2ccc(O)cc2)C(=O)N1c1cccc(Cl)c1 | 85.8 ± 20
Nc1ccc2nc(-c3cc(Cl)c(N)c(Cl)c3)[nH]c2c1 | 22.7 ± 10

SMILES | maximal ERSE-FLuc activation
Oc1ccc(/C=N/Nc2cccc(Cl)n2)c(O)c1 | 24.4 ± 4.8
O=C(CCc1ccccc1)Nc1ccc(Cl)cn1 | 26.1 ± 2.5
CCCNC(=O)c1cc(-c2cccs2)on1 | 92.7 ± 11
COc1cn(-c2ccc(F)cc2)nc1C(=O)Nc1ccccc1SC | 80.8 ± 17
Cc1ccc(O)c(NC(=O)CCc2ccccc2)c1 | 107 ± 12
C/C(=N\NC(=O)c1n[nH]c2c1CCCC2)c1ccc(Br)cc1 | 32.5 ± 9.9
C=CCn1c(N2CCC(C(=O)NCCc3ccc(O)c(O)c3)CC2)nc2ccccc21 | 150 ± 16
Cc1ccc(-c2csc(Nc3ccc(O)cc3)n2)cc1 | 40.9 ± 7.5
CCc1nc2sc(C(=O)c3ccccc3)c(N)c2cc1C | 25.4 ± 6.3
O=[N+]([O-])c1ccccc1N/N=C/c1ccc(O)c(O)c1 | 38 ± 11
CC(C)CNC(=O)c1cc(-c2ccc(F)cc2)no1 | 20.8 ± 5.8
COc1ccc(/C=C(\C#N)c2nc3ccccc3n2C)cc1 | 32.1 ± 2
CCOc1cccc(/C=C2\NC(=S)N(C)C2=O)c1O | 6.21 ± 2
CC(=O)Oc1ccc(C(=O)OCc2ccc(Cl)cc2)cc1OC(C)=O | 40.4 ± 4.3
Cc1ccc(O)c(N/C=C/C(=O)c2ccc(F)cc2)c1 | 303 ± 13
O=C1c2cc(O)ccc2-c2ccc(O)cc21 | 65.1 ± 18
COc1ccc(-c2cnnc(N/N=C/c3ccc(O)c(O)c3)n2)cc1 | 54.5 ± 13
O=C(N/N=C/c1cccc(O)c1O)c1ccccn1 | 25.7 ± 1.9
Nc1ccc2nc(-c3ccc(Br)cc3)[nH]c2c1 | 74.6 ± 19
C=CCNC(=O)c1cc(-c2cccs2)on1 | 124 ± 2.7
Cc1ccc(O)c(NC(=O)CN(C)S(=O)(=O)c2ccc(Cl)cc2)c1 | 43.4 ± 10
N#C/C(=C(/O)c1cc(-c2ccccc2)nc2ccccc12)c1nc2ccccc2[nH]1 | 24.8 ± 8.7

SMILES | maximal ERSE-FLuc activation
O=C(/C=C/c1ccco1)Nc1ccccn1 | 18.7 ± 4.8
COc1ccccc1/C=C/C(=O)Nc1ccc(Cl)cn1 | 27.3 ± 3.7
Cc1cc2nc(/C(C#N)=C/c3ccco3)[nH]c2cc1C | 28 ± 8.7
N#Cc1c(NC(=O)c2ccc(Br)cc2)sc2c1CCCC2 | 17.3 ± 2.2
O=C(Nc1ccc(O)cc1)c1c(O)c2c([nH]c1=O)CCCC2 | 22.3 ± 2.9
NC(=O)c1c(NC(=O)/C=C/c2ccccc2)sc2c1CCCCC2 | 22.6 ± 3.1
Cc1ccccc1-c1cc(=O)c2cc(Cl)ccc2o1 | 24.3 ± 3.6
CCOc1cccc(C(=O)Nc2ccc(Br)cn2)c1 | 23.3 ± 2.1
O=C(N/N=C\C(Cl)=C\c1ccccc1)c1n[nH]c2c1CCCC2 | 19.7 ± 5.1
COc1ccc(/C=C/c2nc3cc([N+](=O)[O-])ccc3s2)cc1O | 39.5 ± 2.4
CCOc1ccc2nc(NC(=O)c3ccn(C)n3)sc2c1 | 10.9 ± 2.4
COc1c(O)cc2oc(-c3ccc(O)c(O)c3)cc(=O)c2c1O | 129 ± 3.5
C(=N/Nc1nnc2c(n1)[nH]c1ccccc12)/c1c[nH]c2ccccc12 | 43.9 ± 1.3
Nc1nc(Nc2ccccc2)cc(-c2ccccc2)n1 | 25.8 ± 9.6
Cc1ccc2nc(/C(C#N)=C/c3ccc(O)c(O)c3)[nH]c2c1 | 23.4 ± 2.9
COc1ccc(/C(C)=N/OC/C(O)=C(\C#N)c2nc3ccccc3[nH]2)cc1OC | 5.39 ± 2.3
O=C(/C=C/c1ccco1)Nc1ccc(Br)cc1Cl | 23.5 ± 2.5
N#Cc1ccc(-c2cccs2)nc1SCc1ccccn1 | 28.6 ± 1.8
O=C1/C(=C/c2ccc(O)c(O)c2)Oc2cc(O)ccc21 | 46.2 ± 4.5
Nc1cn(-c2ccccc2)nc1-c1cccs1 | 47.7 ± 4.1
CC(C)c1ccc(/C=N\NC(=O)c2ccccc2)cc1 | 19.3 ± 9.1
CCN(CC)c1ccc(NC(=O)c2cccc(OC)c2)cc1 | 29.7 ± 5.3

SMILES | maximal ERSE-FLuc activation
CN(c1ccccc1)S(=O)(=O)c1cccc(C(=O)NCCc2ccc(O)c(O)c2)c1 | 202 ± 34
CN(C)/C=N/C1=C(C#N)C(c2ccc3c(c2)OCO3)c2ccc3ccccc3c2O1 (stereo unspecified) | 21.8 ± 6.6
Nc1ccc2nc(/C=C/c3ccccc3)[nH]c2c1 | 34.4 ± 4.7
CN(C)c1ccc(C(=NO)c2ccc(N(C)C)cc2)cc1 | 21.7 ± 4.1
CC(=O)Oc1cc(N2CCOCC2)c(OC(C)=O)c2c1C(=O)c1ccccc1C2=O | 9.5 ± 2.7
Cc1nc(-c2coc3c(O)c(O)ccc3c2=O)cs1 | 35.2 ± 6.9
CN(C)c1ccc(/C=C/C(=O)NC(=O)c2ccccc2OC(=O)c2ccccc2)cc1 | 25 ± 1.2
Oc1cccc(Nc2nc(-c3ccc(O)c(O)c3)cs2)c1 | 83.3 ± 11
Cc1ccccc1NC(=O)c1sc2nc(N)c(C#N)c(-c3ccc(C(C)C)cc3)c2c1N | 169 ± 22
Cc1ccc(C)c(/C=N/Nc2nncc3ccccc23)c1 | 26.4 ± 5.4
COc1ccc(CCNC(=O)c2cccc(-c3ccc(N4CCOCC4)nc3)c2)cc1 | 15.9 ± 4.6
O=C(NC1CCCC1)c1cc(-c2cccs2)on1 | 57.6 ± 6.2
COc1cccc(/C=N\NC(=O)c2n[nH]c3c2CCC3)c1 | 25.8 ± 1.9
C=CCNC(=O)c1cc(-c2ccc(F)cc2)on1 | 50.2 ± 7.4
COc1ccc(C2=Nn3c(nnc3-c3ccc(OC)cc3)SC2)cc1 | 17 ± 5.2
Cc1ccc(O)c(-c2cc(C(F)(F)C(F)F)no2)c1 | 79.8 ± 24
Cc1ccc2nc(/C(C#N)=C\c3cc(Cl)cc4c3OCOC4)[nH]c2c1 | 20.1 ± 3.4
O=c1cc(-c2ccc(O)c(O)c2)oc2ccccc12 | 32.7 ± 5
C/C=C(/C)C(=O)O[C@H]1C(C)=C2[C@H]([C@@H]1OC(=O)CCCCCCC)[C@@](C)(OC(C)=O)C[C@H](OC(=O)CCC)[C@@]1(O)[C@H]2OC(=O)[C@@]1(C)O | 100 and 87.8
O=c1[nH]c(/C=C2\C=Nc3ccccc32)c(O)n1-c1cccc(Cl)c1 | 67.9 ± 1
